These results are taken from patent publication US20100210667A1, “IMIDAZO [1, 2-C] PYRIMIDIN-2-YLMETHYLPIPERIDINES AS OREXIN RECEPTOR ANTAGONISTS” (priority 2007, published 2010).

Ends that are not written are not given here.

For the first experiment, the target named is T1, human cloned orexin-1 receptor (alanine at position 280) (Homo sapiens, UniProt O43613).
T1 construct: expressed in transfected cells
T1 sequence (O43613 1-425): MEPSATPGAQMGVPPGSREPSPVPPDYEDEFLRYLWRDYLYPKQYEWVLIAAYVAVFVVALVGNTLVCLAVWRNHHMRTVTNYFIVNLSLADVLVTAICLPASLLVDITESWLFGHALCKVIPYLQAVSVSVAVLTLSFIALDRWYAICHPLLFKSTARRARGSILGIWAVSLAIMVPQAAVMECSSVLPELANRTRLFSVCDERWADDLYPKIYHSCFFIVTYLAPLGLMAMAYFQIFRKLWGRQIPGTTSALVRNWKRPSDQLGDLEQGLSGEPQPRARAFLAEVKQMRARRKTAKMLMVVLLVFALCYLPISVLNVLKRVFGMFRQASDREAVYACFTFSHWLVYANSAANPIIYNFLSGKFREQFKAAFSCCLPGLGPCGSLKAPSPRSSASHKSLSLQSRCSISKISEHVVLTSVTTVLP
Description: Antagonist affinity at human orexin-1 receptor using FLIPR ([Ca2+]i, CHO cells). The note with it: hOrexin A at EC80, IC50 converted to functional pKi by modified Cheng-Prusoff, read-out: fpKi at the human cloned orexin-1 receptor. The experiment is classed as cell-based. An excerpt: Determination of ANTAGONIST AFFINITY at Human Orexin-1 and 2 Receptors Using FLIPR
Adherent Chinese Hamster Ovary (CHO) cells, stably expressing the recombinant human Orexin-1 or human Orexin-2 receptors or Rat Basophilic Leukaemia Cells (RBL) stably expressing recombinant rat Orexin-1 or rat Orexin-2 receptors were maintained in culture in Alpha Minimum Essential Medium (Gibco/Invitrogen, cat. no.; 22571-020), supplemented with 10% decomplemented foetal bovine serum (Life Technologies, cat. no. 10106-078) and 400 μg/mL Geneticin G418 (Calbiochem, cat. no.345810). Cells were grown as monolayers under 95%:5% air:CO2 at 37° C.
The sequences of the human orexin 1, human orexin 2, rat orexin 1 and rat orexin 2 receptors used in this example were as published in Sakurai, T. et al (1998) Cell, 92 pp 573 to 585, with the exception that the human orexin 1 receptor sequence used had the amino acid residue alanine at position 280 and not glycine as reported in Sakurai et al.
Cells were seeded into black clear-bottom 384-well plates (density of 20,000 cells per well) in culture medium as described above and maintained overnight (95%:5% air:CO2 at 37° C.). On the day of the experiment, culture medium were discarded and the cells washed three times with standard buffer (NaCl, 145 mM; KCl, 5 mM; HEPES, 20 mM; Glucose, 5.5 mM; MgCl2, 1 mM; CaCl2, 2 mM) added with Probenecid 2.5 mM. The plates were then incubated at 37° C. for 60 minutes in the dark with 1 μM FLUO-4AM dye to allow cell uptake of the FLUO-4AM, which is subsequently converted by intracellular esterases to FLUO-4, which is unable to leave the cells. After incubation, cells were washed three times with standard buffer to remove extracellular dye and 30 μL of buffer were left in each well after washing.
Compounds of the invention were tested in a final assay concentration range from 1.66×10^−5M to 1.58×10^−11M. Compounds of the invention were dissolved in dimethylsulfoxide (DMSO) at a stock concentration of 10 mM. These stock solutions were serially diluted with DMSO and 1 μL of each dilution was transferred to a 384 well compound plate. Immediately before introducing compound to the cells, buffer solution (50 μl/well) was added to this plate. To allow agonist stimulation of the cells, a stock plate containing a solution of human orexin A (hOrexin A) was diluted with buffer to final concentration just before use. This final concentration of hOrexin A was equivalent to the calculated EC80 for hOrexinA agonist potency in this test system. This value was obtained by testing hOrexinA in concentration response curve (at least 16 replicates) the same day of the experiment.
The loaded cells were then incubated for 10min at 37° C. with test compound. The plates were then placed into a FLIPRTM (Molecular Devices, UK) to monitor cell fluorescence (λex=488 nm, λEM=540 nm) (Sullivan E, Tucker E M, Dale I L. Measurement of [Ca^2+]i, using the fluometric imaging plate reader (FLIPR). In: Lambert D G (ed.), Calcium Signaling Protocols. New Jersey: Humana Press, 1999, 125-136). A baseline fluorescence reading was taken over a 5 to 10 second period, and then 10 μL of EC80 hOrexinA solution was added. The fluorescence was then read over a 4-5 minute period.
Functional responses using FLIPR were measured as peak fluorescence intensity minus basal fluorescence and expressed as a percentage of a non-inhibited Orexin-A-induced response on the same plate. […]
On to `COc1ncn2cc(C[C@@H]3CCCCN3C(=O)c3nc(C)sc3-c3ccccc3)nc2c1C` [Example 3, 8-methyl-7-(methyloxy)-2-({(2-S)-1-[(2-methyl-5-phenyl-1,3-thiazol-4-yl)carbonyl]-2-piperidinyl}methyl)imidazo[1,2-c]pyrimidine], for which the Ki lay within 0.631 to 3.98 nM.

On to `Cc1nc(C(=O)N2CCCC[C@H]2Cc2cn3cnc(C)c(C)c3n2)c(-c2ccccc2)s1` [Example 5, 7,8-dimethyl-2-({(2S)-1-[(2-methyl-5-phenyl-1,3-thiazol-4-yl)carbonyl]-2-piperidinyl}methyl)imidazo[1,2-c]pyrimidine], for which the Ki lay in the range of 0.631 to 3.98 nM.

Consider `Cc1nc(C(=O)N2CCCC[C@H]2Cc2cn3cnc(C)c(Cl)c3n2)c(-c2ccccc2)s1` [Example 4, 8-chloro-7-methyl-2-({(2S)-1-[(2-methyl-5-phenyl-1,3-thiazol-4-yl)carbonyl]-2-piperidinyl}methyl)imidazo[1,2-c]pyrimidine], for which the Ki was 0.631 to 3.98 nM.

With `Cc1nc(C(=O)N2CCCC[C@H]2Cc2cn3cnc(Cl)c(C)c3n2)c(-c2ccccc2)s1` [Example 1, 7-chloro-8-methyl-2-({2S)-1-[(2-methyl-5-phenyl-1,3-thiazol-4-ylcarbonyl]-2-piperidinyl}methyl)imidazo[1,2-c]pyrimidine], the Ki is 0.631 to 3.98 nM.

For `Cc1nc(C(=O)N2CCCC[C@H]2Cc2cn3cncc(C)c3n2)c(-c2ccccc2)s1` [Example 2], the Ki was 0.631 to 3.98 nM.

The subject of the next experiment is food intake.
Assay: not given
The following applies: central administration, freely-feeding rats, 4 hour time period; cited from earlier work.
Regarding “orexin-A: polypeptide ligand for the orexin-1 receptor, an agonist of the orexin receptors (QPLPDCCRQKTCSCRLYELLHGAGNHAAGILTL; ends and bridges not checked; cysteine pairing not given here; UniProt O43612 34-66, looked up)”, the “increase of food intake over control rats receiving vehicle” value is given as “approximately four-fold”.
